For eight compounds, MIC results are on record in ChEMBL document CHEMBL4765323, “Design, synthesis, and biological evaluation of novel miconazole analogues containing selenium as potent antifungal agents” (Eur J Med Chem, 2020).

Type in all cases: functional
Experiment [1] has as its system Candida albicans. Kind of experiment: Antifungal activity against Candida albicans CPCC400616 measured after 24 hrs by micro-broth dilution assay.
In experiment [2] the test system is Candida albicans. Kind of experiment: Antifungal activity against Candida albicans ATCC SC5314 measured after 24 hrs by micro-broth dilution assay. For orientation: Broth dilution looks for growth in wells or tubes with falling amounts of substance.
In a further experiment the test system is [Candida] zeylanoides. The experiment in a line: Antifungal activity against Candida zeylanoides CMGCC2.3739 measured after 24 hrs by micro-broth dilution assay. Particulars: Dujonia zeylanoides.
For another experiment, the system named is Cryptococcus neoformans. Kind of experiment: Antifungal activity against Cryptococcus neoformans CGMCC2.3161 measured after 72 hrs by micro-broth dilution assay.
Another experiment has as its system Pichia kudriavzevii. Kind of experiment: Antifungal activity against Candida krusei AS 2.1045 measured after 24 hrs by micro-broth dilution assay.
The test system of another experiment is Nakaseomyces glabratus. The experiment in a line: Antifungal activity against clinical isolate Candida glabrata measured after 24 hrs by micro-broth dilution assay.
The test system of another experiment is Candida parapsilosis. Kind of experiment: Antifungal activity against Candida parapsilosis ATCC 22019 measured after 24 hrs by micro-broth dilution assay. The note with it: Lodderomyces parapsilosis.
A further experiment relates to Aspergillus fumigatus. Kind of experiment: Antifungal activity against Aspergillus fumigatus CGMCC 3.7795 measured after 72 hrs by micro-broth dilution assay.
In experiment [3] the test system is Candida albicans. Kind of experiment: Antifungal activity against fluconazole-resistant Candida albicans CaR measured after 24 hrs by micro-broth dilution assay.
Experiment [4] concerns Candida albicans. Kind of experiment: Antifungal activity against fluconazole-resistant Candida albicans 17 measured after 24 hrs by micro-broth dilution assay.
Experiment [5] relates to Candida albicans. Kind of experiment: Antifungal activity against fluconazole-resistant Candida albicans 632 measured after 24 hrs by micro-broth dilution assay.
Experiment [6] concerns Candida albicans. Kind of experiment: Antifungal activity against Candida albicans 901 measured after 24 hrs by micro-broth dilution assay.
For experiment [7], the system named is Candida albicans. The experiment in a line: Antifungal activity against fluconazole-resistant Candida albicans strain 904 measured after 24 hrs by micro-broth dilution assay.

Structures are written as SMILES. Values after ≈ are worked out from the molar mass of the structure shown.

By MIC is commonly meant the smallest concentration in the dilution series that meets the test's criterion for growth inhibition. For `Cc1ccc(C[Se]C(Cn2ccnc2)c2ccc(F)cc2F)cc1` (centres undefined), the minimum inhibitory concentration (MIC) turned out to be 0.25 µg/mL (≈ 0.639 µM) against Candida albicans [1]; 0.06 µg/mL (≈ 0.153 µM) against Candida albicans [2]; 0.5 µg/mL (≈ 1.28 µM) in experiment [Candida] zeylanoides; 0.5 µg/mL (≈ 1.28 µM) with Cryptococcus neoformans; 2 µg/mL (≈ 5.11 µM) in the experiment on Pichia kudriavzevii; 1 µg/mL (≈ 2.56 µM) in the experiment on Nakaseomyces glabratus. Moreover, the minimal inhibitory concentration (MIC) came out at 0.25 µg/mL (≈ 0.639 µM) in the experiment with Candida parapsilosis; 1 µg/mL (≈ 2.56 µM) in the experiment on Aspergillus fumigatus; 16 µg/mL (≈ 40.9 µM) in the experiment on Candida albicans [3]; 2 µg/mL (≈ 5.11 µM) in the experiment on Candida albicans [4]; 16 µg/mL (≈ 40.9 µM) in the experiment with Candida albicans [5]; 1 µg/mL (≈ 2.56 µM) in the experiment with Candida albicans [6]. In the experiment on Candida albicans [7], the lowest concentration to inhibit growth (MIC) was 4 µg/mL (≈ 10.2 µM).
Regarding `Clc1ccc(C[Se]C(Cn2ccnc2)c2ccc(Cl)cc2Cl)cc1` (centres undefined), the minimum inhibitory concentration (MIC) with Candida albicans [1] is 0.06 µg/mL (≈ 0.135 µM); in the experiment with Candida albicans [2], 0.03 µg/mL (≈ 0.0675 µM); in experiment [Candida] zeylanoides, 8 µg/mL (≈ 18 µM); in the experiment on Cryptococcus neoformans, 0.25 µg/mL (≈ 0.562 µM); against Pichia kudriavzevii, 0.5 µg/mL (≈ 1.12 µM); in the experiment on Nakaseomyces glabratus it was 1 µg/mL (≈ 2.25 µM). For the same compound, the MIC against Candida parapsilosis came out at 0.5 µg/mL (≈ 1.12 µM); in the experiment with Aspergillus fumigatus, 2 µg/mL (≈ 4.5 µM); in the experiment on Candida albicans [3], 16 µg/mL (≈ 36 µM); against Candida albicans [4], 8 µg/mL (≈ 18 µM); in the experiment with Candida albicans [5], 64 µg/mL (≈ 144 µM); with Candida albicans [6] it was 8 µg/mL (≈ 18 µM). The same compound registered an MIC with Candida albicans [7] greater than 128 µg/mL.
For `COc1ccc(C[Se]C(Cn2ccnc2)c2ccc(F)cc2F)cc1` (centres undefined), the MIC against Candida albicans [1] was determined as 0.25 µg/mL (≈ 0.614 µM); against Candida albicans [2], 0.13 µg/mL (≈ 0.319 µM); in [Candida] zeylanoides, 2 µg/mL (≈ 4.91 µM); in the experiment on Cryptococcus neoformans, 0.5 µg/mL (≈ 1.23 µM); in the experiment with Pichia kudriavzevii, 2 µg/mL (≈ 4.91 µM); in the experiment with Nakaseomyces glabratus, 0.5 µg/mL (≈ 1.23 µM). Besides, the MIC was 0.25 µg/mL (≈ 0.614 µM) in the experiment with Candida parapsilosis; 1 µg/mL (≈ 2.46 µM) against Aspergillus fumigatus; 8 µg/mL (≈ 19.6 µM) in the experiment on Candida albicans [3]; 8 µg/mL (≈ 19.6 µM) against Candida albicans [4]; 8 µg/mL (≈ 19.6 µM) against Candida albicans [5]; 8 µg/mL (≈ 19.6 µM) with Candida albicans [6]. Besides, it took 2 µg/mL (≈ 4.91 µM) to inhibit growth against Candida albicans [7] (MIC).
Take `Fc1cccc(C[Se]C(Cn2ccnc2)c2ccc(Cl)cc2Cl)c1` (centres undefined): the MIC amounted to 0.03 µg/mL (≈ 0.0701 µM) in the experiment on Candida albicans [1]; 0.03 µg/mL (≈ 0.0701 µM) against Candida albicans [2]; 1 µg/mL (≈ 2.34 µM) in experiment [Candida] zeylanoides; 0.25 µg/mL (≈ 0.584 µM) against Cryptococcus neoformans; 2 µg/mL (≈ 4.67 µM) in the experiment on Pichia kudriavzevii; 0.5 µg/mL (≈ 1.17 µM) in the experiment with Nakaseomyces glabratus. Besides, the MIC came to 0.02 µg/mL (≈ 0.0467 µM) against Candida parapsilosis; 2 µg/mL (≈ 4.67 µM) in the experiment with Aspergillus fumigatus; 1 µg/mL (≈ 2.34 µM) with Candida albicans [3]; 0.5 µg/mL (≈ 1.17 µM) in the experiment with Candida albicans [4]; 1 µg/mL (≈ 2.34 µM) in the experiment with Candida albicans [5]; 0.25 µg/mL (≈ 0.584 µM) with Candida albicans [6]. The compound further showed an MIC in the experiment on Candida albicans [7] of 0.25 µg/mL (≈ 0.584 µM).
With `COc1cccc(C[Se]C(Cn2ccnc2)c2ccc(F)cc2F)c1` (centres undefined), the MIC in the experiment on Candida albicans [1] came to 0.06 µg/mL (≈ 0.147 µM); in the experiment with Candida albicans [2] it was 0.13 µg/mL (≈ 0.319 µM); in experiment [Candida] zeylanoides, 1 µg/mL (≈ 2.46 µM); against Cryptococcus neoformans, 0.5 µg/mL (≈ 1.23 µM); against Pichia kudriavzevii it was 2 µg/mL (≈ 4.91 µM); in the experiment on Nakaseomyces glabratus, 1 µg/mL (≈ 2.46 µM). In addition, the MIC in the experiment with Candida parapsilosis turned out to be 0.5 µg/mL (≈ 1.23 µM); in the experiment with Aspergillus fumigatus it was 2 µg/mL (≈ 4.91 µM); against Candida albicans [3] it was 4 µg/mL (≈ 9.82 µM); against Candida albicans [4], 16 µg/mL (≈ 39.3 µM); against Candida albicans [5], 2 µg/mL (≈ 4.91 µM); with Candida albicans [6], 8 µg/mL (≈ 19.6 µM). In the experiment on Candida albicans [7], the minimum inhibitory concentration (MIC) was found to be 16 µg/mL (≈ 39.3 µM).
As for `COc1ccc(C[Se]C(Cn2ccnc2)c2ccc(Cl)cc2Cl)cc1` (centres undefined), the minimal inhibitory concentration (MIC) against Candida albicans [1] amounted to 0.13 µg/mL (≈ 0.295 µM); in the experiment on Candida albicans [2], 0.13 µg/mL (≈ 0.295 µM); in [Candida] zeylanoides, 8 µg/mL (≈ 18.2 µM); against Cryptococcus neoformans, 0.25 µg/mL (≈ 0.568 µM); in the experiment with Pichia kudriavzevii, 8 µg/mL (≈ 18.2 µM); against Nakaseomyces glabratus it was 0.5 µg/mL (≈ 1.14 µM). Besides, the MIC in the experiment with Candida parapsilosis was determined as 0.5 µg/mL (≈ 1.14 µM); in the experiment with Aspergillus fumigatus, 1 µg/mL (≈ 2.27 µM); against Candida albicans [3] it was 32 µg/mL (≈ 72.7 µM); in the experiment on Candida albicans [4], 16 µg/mL (≈ 36.3 µM); with Candida albicans [5], 128 µg/mL (≈ 291 µM); against Candida albicans [6], 16 µg/mL (≈ 36.3 µM). The MIC in the experiment with Candida albicans [7] was 128 µg/mL (≈ 291 µM).
With `Fc1ccc(C(Cn2ccnc2)[Se]Cc2ccc(Br)cc2)c(F)c1` (centres undefined), the MIC against Candida albicans [1] amounted to 0.25 µg/mL (≈ 0.548 µM); in the experiment on Candida albicans [2], 0.13 µg/mL (≈ 0.285 µM); in [Candida] zeylanoides it was 0.25 µg/mL (≈ 0.548 µM); with Cryptococcus neoformans, 0.5 µg/mL (≈ 1.1 µM); in the experiment on Pichia kudriavzevii, 1 µg/mL (≈ 2.19 µM); in the experiment with Nakaseomyces glabratus, 2 µg/mL (≈ 4.38 µM). The MIC came to 0.25 µg/mL (≈ 0.548 µM) in the experiment on Candida parapsilosis; 1 µg/mL (≈ 2.19 µM) in the experiment with Aspergillus fumigatus; 64 µg/mL (≈ 140 µM) in the experiment on Candida albicans [3]; 2 µg/mL (≈ 4.38 µM) in the experiment with Candida albicans [4]; 8 µg/mL (≈ 17.5 µM) against Candida albicans [5]; 2 µg/mL (≈ 4.38 µM) in the experiment on Candida albicans [6]. The MIC in the experiment on Candida albicans [7] was found to be 2 µg/mL (≈ 4.38 µM).
`Cc1cccc(C[Se]C(Cn2ccnc2)c2ccc(Cl)cc2Cl)c1` (centres undefined): the MIC against Candida albicans [1] stood at 0.03 µg/mL (≈ 0.0707 µM); against Candida albicans [2] it was 0.03 µg/mL (≈ 0.0707 µM); in [Candida] zeylanoides, 16 µg/mL (≈ 37.7 µM); in the experiment on Cryptococcus neoformans it was 0.25 µg/mL (≈ 0.589 µM); with Pichia kudriavzevii it was 4 µg/mL (≈ 9.43 µM); with Nakaseomyces glabratus, 0.5 µg/mL (≈ 1.18 µM). Moreover, the MIC amounted to 1 µg/mL (≈ 2.36 µM) against Candida parapsilosis; 8 µg/mL (≈ 18.9 µM) in the experiment with Aspergillus fumigatus; 4 µg/mL (≈ 9.43 µM) in the experiment on Candida albicans [3]; 4 µg/mL (≈ 9.43 µM) against Candida albicans [4]; 2 µg/mL (≈ 4.71 µM) in the experiment on Candida albicans [5]; 2 µg/mL (≈ 4.71 µM) against Candida albicans [6]. The compound further displayed an MIC with Candida albicans [7] of 2 µg/mL (≈ 4.71 µM).
